Data set [1] can be described thus: Antioxidant activity assessed as inhibition of ABTS free radical formation at 1 mg/ml by spectroscopic analysis (reference value: 0%). Format: functional.
Data set [2] concerns Ehrlich. Briefly: In vitro antitumor activity against Mus musculus (mouse) Ehrlich ascites cell assessed as dead tumor cells by trypan blue exclusion test. The class given is functional.
Data set [3] is described as follows: Pro-oxidant activity assessed as bleomycin-Fe3+ complex-induced DNA damage at 1 mg/ml after 1 hr. Format: ADME.
The nature of data set [4]: Antioxidant activity assessed as inhibition of ABTS free radical formation at 2 mM by spectroscopic analysis (reference value: 0%). Format: functional.

Molecules are shown by their SMILES.

With `O=Cc1ccc(Nc2nncs2)cc1`, the inhibition (as a rule, the percentage by which the read-out fell short of the control) in data set [1] is 26.5%. In data set [2], the ED25 amounted to 8.7 microg/cm3, the ED50 is 17.9 microg/cm3 and the ED100 amounted to 38.3 microg/cm3. For the same molecule, the OD in data set [3] is given as 0.1.
For `CC1=NN(c2ccccc2)C(=O)/C1=C/c1ccc(Nc2nncs2)cc1`, in data set [1], the inhibition was found to be 41.6%. Further, in data set [2], the ED25 is on record as 8.8 microg/cm3, the ED50 is recorded as 17 microg/cm3 and the ED100 was found to be 31 microg/cm3. Besides, the OD in data set [3] is given as 0.105.
Take `N#CCC(=O)Nc1nncs1`: in data set [1], the inhibition came out at 70.9%. Besides, the OD in data set [3] is on record as 0.08.
Regarding `Clc1ccc(C/N=c2/scnn2Cc2ccc(Cl)cc2)cc1`, the inhibition in data set [1] turned out to be 38%. Further, in data set [2], the ED25 was 7.4 microg/cm3, the ED50 turned out to be 16 microg/cm3 and the ED100 came to 29 microg/cm3. In data set [3], the OD amounted to 0.121.
With `N#CSCC(=O)Nc1nncs1`, the inhibition in data set [1] was 25.7%. For the same molecule, the OD in data set [3] was found to be 0.099.
Regarding `N#C/C(=C\c1ccc(N2CCCCC2)cc1)C(=O)Nc1nncs1`, the inhibition in data set [1] was 28.7%. In addition, in data set [3], the OD came out at 0.114.
In the case of `O=C(Nc1nncs1)c1ccc(Cl)cc1`, the inhibition in data set [1] was determined as 26.5%. In addition, in data set [2], the ED25 amounted to 11 microg/cm3, the ED50 is 24 microg/cm3 and the ED100 stood at 52 microg/cm3. Moreover, the OD in data set [3] was 0.1.
Regarding `Cl/C(=N\c1nncs1)c1ccc(Cl)cc1`, in data set [2], the ED25 worked out at 6.9 microg/cm3, the ED50 stood at 13 microg/cm3 and the ED100 worked out at 6.9 microg/cm3.
For `CN(C)/C=C(\C#N)C(=O)Nc1nncs1`, the inhibition in data set [1] came to 23.7%. Besides, in data set [2], the ED25 was 7.8 microg/cm3, the ED50 was 14.1 microg/cm3 and the ED100 was determined as 26 microg/cm3. In data set [3], the OD came to 0.127.
In the same order, the values of `O=C(CN1CCN(c2ccccc2)CC1)Nc1nncs1` are 25.7%, 13 microg/cm3, 24 microg/cm3, 46.1 microg/cm3 and 0.096.
For `O=c1[nH]cc(F)c(=O)[nH]1` [FLUOROURACIL], in data set [2], the ED25 worked out at 40 microg/cm3, the ED50 amounted to 63 microg/cm3 and the ED100 is listed as 97 microg/cm3.
In the case of `Nc1nnc(SCC(=O)Nc2nncs2)s1`, the inhibition in data set [1] came out at 20.7%. Moreover, in data set [2], the ED25 is on record as 14.4 microg/cm3, the ED50 turned out to be 27 microg/cm3 and the ED100 was 42.5 microg/cm3. The OD in data set [3] came to 0.101.
With `O=C1O[C@H]([C@@H](O)CO)C(O)=C1O` [ASCORBIC ACID], the inhibition in data set [4] turned out to be 88.5%. For the same molecule, the OD in data set [3] came out at 0.098.
As to `CC1=NN(c2ccccc2)C(=O)/C1=N\Nc1nncs1`, in data set [2], the ED25 amounted to 10 microg/cm3, the ED50 is on record as 21 microg/cm3 and the ED100 amounted to 42.1 microg/cm3.
Turning to `Clc1ccc(CNc2nncs2)cc1`, the inhibition in data set [1] was found to be 0.354%. Also, the OD in data set [3] came to 0.108.
Regarding `O=C(CNc1nncs1)Nc1nncs1`, in data set [2], the ED25 is 9.4 microg/cm3, the ED50 worked out at 18.9 microg/cm3 and the ED100 is 39.1 microg/cm3.
With `c1nnc(/N=N/Nc2nncs2)s1`, the inhibition in data set [1] was found to be 24.5%. In addition, in data set [2], the ED25 was determined as 19.3 microg/cm3, the ED50 worked out at 33 microg/cm3 and the ED100 is recorded as 61.5 microg/cm3. The OD in data set [3] stood at 0.103.
In the same order, the values of `Cc1cc(C)c2c(NN/C=C(\C#N)C(=O)Nc3nncs3)n[nH]c2n1` are 51.8%, 5 microg/cm3, 10.2 microg/cm3, 19 microg/cm3 and 0.109.
Regarding `Nc1n[nH]cc1C(=O)Nc1nncs1`, the inhibition in data set [1] is 18.9%. In addition, the OD in data set [3] stood at 0.102.
Turning to `Cc1cc(C)c2c(n1)nn1c(N)c(C(=O)Nc3nncs3)nnc21`, in data set [2], the ED25 was found to be 25 microg/cm3, the ED50 stood at 48.2 microg/cm3 and the ED100 came out at 80.7 microg/cm3.
On to `O=C(CCl)Nc1nncs1`, for which the inhibition in data set [1] turned out to be 27.1%. For the same molecule, in data set [2], the ED25 came out at 7.8 microg/cm3, the ED50 stood at 16 microg/cm3 and the ED100 came to 28 microg/cm3. Besides, in data set [3], the OD came to 0.102.
With `Clc1ccc(-c2nnnn2-c2nncs2)cc1`, in data set [2], the ED25 stood at 12 microg/cm3, the ED50 was determined as 23 microg/cm3 and the ED100 is 41 microg/cm3.
Turning to `Nc1nncs1`, the inhibition in data set [1] stood at 28.5%. For the same molecule, in data set [2], the ED25 came out at 37 microg/cm3, the ED50 is listed as 56 microg/cm3 and the ED100 is listed as 92.9 microg/cm3. Moreover, the OD in data set [3] is 0.09.
On to `O=C(CN1CCN(CC(=O)Nc2nncs2)CC1)Nc1nncs1`, for which, in data set [2], the ED25 turned out to be 8.7 microg/cm3, the ED50 was 18 microg/cm3 and the ED100 is 37 microg/cm3.

Source of the values: ChEMBL document CHEMBL3046931, “Synthesis, antioxidant, and antitumor evaluation of certain new N-substituted-2-amino-1,3,4-thiadiazoles” (Med Chem Res, 2013).
